Results reported in US20070270409A1, “Medicament for Preventing and/or Treating Ischemic Cardiovascular Disease” (Mitsubishi Pharma Corporation, priority 2004, published 2007).

Test system: patients with anterior ST-segment elevation myocardial infarction undergoing PCI
Test: Clinical study of caldaret in patients undergoing PCI: SPECT measurements and cardiac serum markers
Assay type: in vivo
Details: for Infarct size (% of the left ventricle): continuous intravenous 48 hours started about 30 minutes before PCI; for Infarct size (% of the left ventricle) / EDV (left ventricular end-diastolic volume) / ESV (left ventricular end-systolic volume) / LVEF (left ventricular ejection fraction): SPECT at day 7; for Infarct size (% of the left ventricle) / Serum marker CK / Serum marker TnT / EDV (left ventricular end-diastolic volume) / ESV (left ventricular end-systolic volume) / LVEF (left ventricular ejection fraction): TIMI flow grade 0 or 1; for Serum marker CK / Serum marker TnT / EDV (left ventricular end-diastolic volume) / ESV (left ventricular end-systolic volume) / LVEF (left ventricular ejection fraction): continuous intravenous 48 hours; for Serum marker CK: AUC of CK at days 0 to 3; for Serum marker TnT: AUC of TnT at days 0 to 5
Protocol: Three hundred and eighty-seven patients with ΣST elevation of 10 mm or more undergoing PCI were divided into 3 groups: a caldaret non-administration group; a 61.5 mg caldaret administration group (57.5 mg in terms of 5-methyl-2-(1-piperazinyl)benzenesulfonic acid) (low-dose group); and a 184.6 mg caldaret administration group (172.5 mg in terms of 5-methyl-2-(1-piperazinyl)benzenesulfonic acid) (high-dose group). To these patients, administration of placebo (the caldaret non-administration group) or caldaret (the low-dose group and the high-dose group) was initiated about 30 minutes before PCI was performed. Placebo or caldaret was continuously administered intravenously for 48 hours. At day 7 after administration (the initiation day of adminstration=day 0 after administration, and hereinafter the same), the infarct size, the left ventricular end-systolic volume (ESV), the left ventricular end-diastolic volume (EDV) and the left ventricular ejection fraction (LVEF) were measured by SPECT and the cardiac serum markers were measured. Incidentally, as for the serum markers, AUC of TnT at days 0 to 5 after administration and AUC of CK at days 0 to 3 after administration were measured.
Hereinafter, the measurement results in 247 patients with TIMI flow grade 0 or 1 diagnosed with anterior ST-segment elevation myocardial infarction (88 patients in the low-dose group, 70 patients in the high-dose group and 89 patients in the caldaret non-administration group) are shown.

[1] = high-dose group, 184.6 mg caldaret
[2] = low-dose group, 61.5 mg caldaret

## Cc1ccc(N2CCNCC2)c(S(=O)(=O)O)c1.O [caldaret, 5-methyl-2-(1-piperazinyl)benzenesulfonic acid monohydrate]
359 patients with anterior ST-segment elevation myocardial infarction regardless of the TIMI flow grade, low-dose and high-dose groups
  All the measurement parameters compared with the non-administration group: improving tendency
[1]
  Infarct size (% of the left ventricle): 25.7 (b) % of the left ventricle
  Serum marker CK: 1157 (*) IU/I
  Serum marker TnT: 4.3 mg/L
  EDV (left ventricular end-diastolic volume): 134.1 mL
  ESV (left ventricular end-systolic volume): 78.0 mL
  LVEF (left ventricular ejection fraction): 38.1 (*) %
[2]
  Infarct size (% of the left ventricle): 24.4 (a) % of the left ventricle
  Serum marker CK: 1144 (*) IU/I
  Serum marker TnT: 5 mg/L
  EDV (left ventricular end-diastolic volume): 138.4 mL
  ESV (left ventricular end-systolic volume): 80.7 mL
  LVEF (left ventricular ejection fraction): 36.6%
Patient with anterior ST-segment elevation myocardial infarction undergoing percutaneous coronary intervention, overall conclusion
  Effect on myocardial injury and myocardial function: can alleviate myocardial injury and preserve myocardial function
